According to patent US4738979A, “α2 -blocking derivatives of imidazole” (G. D. Searle & Co., priority 1985, dated 1988):

Experiments:
[1] = system: α1 -adrenergic receptors; experiment: binding to α1-adrenergic receptors on rat brain homogenates (3H-WB 4101); conditions: 1.6 nM 3H-WB 4101
Protocol: (§1) The activity of the compounds according to the invention with respect to binding of the α-adrenergic receptors was determined in vitro according to a method deriving from the works of B. R. Rouot et al., Life Sci., 25, 769 (1979) and of D. U'Prichard et al., Mol. Pharmacol., 13, 454 (1977). This method consists in measuring the binding to the receptor on rat brain homogenates, by marking by means of a specific tritriated ligand placed in competition with the product to be tested.
(§2) In the presenct case the binding to the α1 -adrenergic receptors was measured by means of 1.6 nM of ^3 H-WB 4101 and the binding to the α2 -adrenergic receptors by means of 0.7 nM of ^3 H-p. aminoclonidine, the non-specific binding being determined by 1,000 nM of phentolamine. The results are given in Table II, column 3, and are expressed in terms of percentage of inhibition of the specific binding of 10^-7 molar compound concentration.
(§3) (2) The specific binding is the total binding less the nonspecific
(§4) binding. The total binding is the binding in the absence of nonradioactiv
(§5) drug. The nonspecific binding is the binding in the presence of 1,000 nM
(§6) of phentolamine. The products of the invention are tested at a
(§7) concentration of 10^-7 molar.

[2] = target: T1, α2 -adrenergic receptors (Rattus norvegicus, UniProt P22909); experiment: binding to α2-adrenergic receptors on rat brain homogenates (3H-p. aminoclonidine); conditions: 10^-7 M; for inhibition at 0.1 µM: rat brain homogenates, 0.7 nM 3H-p. aminoclonidine, read-out: % Inhibition of the Specific Binding at 10^-7 M for α2 Recep.; for affinity for α2 receptors (in words): in vitro binding assay
T1 construct: from tissue; host or cells: rat brain homogenates
T1 sequence (P22909 1-465): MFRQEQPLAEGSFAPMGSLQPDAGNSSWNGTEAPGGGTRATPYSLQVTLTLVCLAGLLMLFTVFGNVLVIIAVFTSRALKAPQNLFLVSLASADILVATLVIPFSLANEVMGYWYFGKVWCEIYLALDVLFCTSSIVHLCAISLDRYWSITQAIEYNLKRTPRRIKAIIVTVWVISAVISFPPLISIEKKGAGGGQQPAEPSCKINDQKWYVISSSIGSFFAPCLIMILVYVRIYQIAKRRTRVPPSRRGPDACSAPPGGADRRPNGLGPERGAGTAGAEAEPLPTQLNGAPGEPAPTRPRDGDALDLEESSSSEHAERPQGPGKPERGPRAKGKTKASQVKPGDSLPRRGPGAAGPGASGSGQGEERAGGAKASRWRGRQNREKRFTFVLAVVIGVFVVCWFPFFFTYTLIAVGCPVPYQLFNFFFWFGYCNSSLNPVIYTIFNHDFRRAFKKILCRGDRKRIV
Protocol: as §1, §2, §3, §4, §5, §6, §7

[3] = system: α2 adrenergic receptors of the central nervous system; experiment: inhibition of the antihypertensive action of clonidine in spontaneously hypertensive rats (SHR); format: in vivo, rat; conditions: 1 mg/kg p.o., clonidine 50 μg/kg s.c.
Protocol: In the first study, carried out upon unanaesthetized spontaneously hypertensive rats (SHR rats), the ability of the compounds of the present invention to inhibit the antihypertensive action of clonidine was determined.
The antihypertensive activity of clonidine results from an interaction with α2 adrenergic receptors of the central nervous system, i.e., central antihypertensive actions.
In this test, two groups of SHR rats are utilized as follows. In the first group, prior to subcutaneous administration of clonidine (50 μg/kg), the SHR rats are treated with the compound to be tested (1 mg/kg p.o.) dissolved in a saline vehicle. The second group (control group) of SHR rats are treated with the saline vehicle only, prior to subcutaneous administration of clonidine.
The arterial pressure is measured in the region of the median coccygeal artery according to the method of J. Roba, A. F. DeSchaepdrijver, Exp. Anim., 4, 147-162 (1971).
The results of this assay summarized in Table II, column 5, are expressed as a percentage of inhibition of the effect of clonidine.

[4] = system: bicuculline-induced tonic extension in mice; experiment: protection against bicuculline-induced tonic extension in mice; format: in vivo; conditions: Mus musculus, iv, 3 hours prior to bicuculline 0.7 mg/kg i.v., read-out: Anticonvulsive effect (versus Bicuculline) (% Protection)
Protocol: (§8) In the second study the anti-convulsant effect of the compounds of the present invention was examined in two seizure models; bicuculline-induced tonic extension in mice and 3-mercaptopropionic acid (3-MPA)-induced tonic extension in mice.
(§9) In the bicuculline study, the ability of the compounds of the present invention to protect against tonic extension (involving rigidity) was evaluated as follows. Each test compound was administered to a group of ten mice at a dose of 10 mg/kg, 3 hours prior to the i.v. administration of bicuculline (0.7 mg/kg). Anticonvulsant activity in this test is expressed as percentage of animals tested. The results are given in Table II, column 6, and indicate that several compounds display significant anticonvulsive activity in this test. The anticonvulsant effect of the compounds has also been tested with respect to the tonic extension induced by 3-mercaptopropionic acid (120 mg/kg subcutaneously) in mice.

[5] = system: 3-mercaptopropionic acid (3-MPA)-induced tonic extension in mice; experiment: protection against 3-mercaptopropionic acid (3-MPA)-induced tonic extension in mice; format: in vivo; conditions: 100 mg/kg orally, 30 minutes prior to 3-MPA (120 mg/kg s.c.)
Protocol: as §8, §9
In the 3-MPA assay, the compounds of the present invention are administered orally at a dose of 100 mg/kg 30 minutes prior to administration of 3-MPA. Each compound was tested on a group of 5 mice; if more than 1 mouse was protected, a second group of 5 mice was tested.

[6] = target: T2, α2 -adrenergic receptors (Cavia porcellus, UniProt Q60474); experiment: α2 antagonist and α2 agonist activity in isolated guinea pig ileum (clonidine)
T2 construct: from tissue; host or cells: isolated guinea pig ileum
T2 sequence (Q60474 1-464): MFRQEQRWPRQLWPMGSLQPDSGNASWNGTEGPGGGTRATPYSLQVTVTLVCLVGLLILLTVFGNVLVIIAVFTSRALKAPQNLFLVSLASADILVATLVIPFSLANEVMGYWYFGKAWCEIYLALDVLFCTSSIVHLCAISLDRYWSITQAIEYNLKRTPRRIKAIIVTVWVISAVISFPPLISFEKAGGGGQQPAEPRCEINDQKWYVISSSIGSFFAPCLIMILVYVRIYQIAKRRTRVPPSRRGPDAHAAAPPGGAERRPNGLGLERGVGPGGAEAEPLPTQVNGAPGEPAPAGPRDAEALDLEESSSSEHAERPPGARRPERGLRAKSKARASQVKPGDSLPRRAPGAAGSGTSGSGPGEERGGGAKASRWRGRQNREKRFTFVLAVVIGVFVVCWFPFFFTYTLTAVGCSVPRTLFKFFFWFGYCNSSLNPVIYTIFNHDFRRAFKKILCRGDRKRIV
Protocol: The α2 antagonist and α2 agonist activity of the compounds according to the invention was determined upon isolated organs according to a model described by G. M. Drews, Br. J. Pharmaco., 64, 293-300 (1978).
This model is based upon the principle that the stimulation of the cholinergic nervous transmissions of the guinea pig ileum causes the liberation of acetyl choline, which in turn causes contractions of the ileum.
The stimulation of the α2 -adrenergic receptors inhibits the activity of the cholinergic nerve and consequently reduces all response resulting from a timulation of the latter. Thus the contractions of the ileum induced by electric stimulation of the tissue are inhibited by clonidine, an α2 agonist, in proportion to the dose. This inhibition is specifically displaced by the α2 antagonists and not by the α1 antagonists.
The method utilized can be summarized as follows: three dose-response curves to clonidine are established at an interval of 60 minutes. Two concentrations of the product to be tested are added successively 10 minutes before the realization of the second and third clonidine curves. Next, after washing, a dose-response curve is established with the product to be tested.
The dose-response curves are calculated as a percentage of the maximum inhibition obtained for the first curve. In this system the products having an α2 antagonist activity displace the dose-response curve to clonidine. The α2 antagonist activity, expressed in pA2 value, shown in column 4, is calculated according to J. M. Van Rossum, Arch. Int. Pharmacodyn., 143, 299-300 (1963).
A reduction of the contractions induced by the tested product alone indicates an α2 agonist effect. This activity is expressed in--log ED50 (the--logarithm of the concentration of the product giving 50% of the maximum inhibition obtained with clonidine).
The higher the pA2 value, the higher the α2 antagonist activity; the higher the--log ED50 value (i.e., the pA2 agonist activity), the higher the α2 agonist activity.

[7] = system: peripheral vascular α2 receptors; experiment: inhibition of the pressor effect of BHT 920 in pithed rats; format: in vivo, rat; conditions: 1 mg/kg i.v., BHT 920 30 μg/kg i.v.
Protocol: The α2 antagonist activity of the compounds is evaluated by the inhibition of the pressor effect (blood pressure elevation), of a specific α2 agonist agent, 4H-Thiazolo[4,5-b]azetin-2-amine, 5,6,7,8-tetrahydro-6-(2-propenyl)-, dihydrochloride, designated as BHT 920 at a concentration of 30 μg/kg i.v.) according to a method described by J. C. Van Meel et al., J. Pharmacol. Exp. Ther., 219, 760-767 (1981).
The compound to be tested is administered at 1 mg/kg i.v. The ability of the compounds tested to antagonize the pressor effects of BHT 920 is determined and expressed as percentage of inhibition. Any direct hypertensive (=α2 agonist) activity of the compounds under test can likewise be detected.

[8] = acute toxicity after oral administration to mice (LD50); conditions: mouse, in vivo, 15 days mortality
Protocol: The acute toxicity of the compounds of the present invention was studied after oral administration to mice. The products to be tested, suspended in a 1% tragacanth gum mucilage, were administered by means of an intragastric probe to groups of three male mice which had fasted since the preceding day. The doses tested are a function of the effect observed and can vary from 3,000 to 3 mg/kg or less. The mortality was recorded for 15 days. The lethal dose for 50% of the animals (LD50) was calculated according to the method of J. Litchfield and F. Wilcoxon, J. Pharmacol. Exp. Ther., 96, 99 (1949) and expressed in mg/kg. The effect of the products on the behaviour of the animals is observed until 5 to 6 hours after the treatment indicated above and after 24 hours, using a method derived from that of S. Irwin, described by R. A. Turner, Screening Methods in Pharmacology, Chapter 3, pages 22-34, Academic Press, 1965. If anomalies are noted, the observation is prolonged and smaller doses are tested.

SMILES	% Inhibition of the Specific Binding at 10^-7 M for α1 Recep. [1] [%]	inhibition at 0.1 µM [2] [%]	α2 Antagonist (% Inhibition of the Antihypertension of Clonidine) [3] [%]	responders at 10 mg/kg [4] [%]	anticonvulsant effect versus 3-MPA (in words) [5]	EC50 ([6]; 50% of maximum inhibition obtained with clonidine, read-out: α2 Agonist Activity (-log ED50) (converted)) [nM]	Kb ([6]; versus clonidine, read-out: α2 Antagonist Activity (pA2) (converted)) [nM]	α2 antagonist activity, inhibition of pressor effect of BHT 920 (in words) [7]	LD50 at 360 h [8] [mg/kg]	affinity for α2 receptors (in words) [2]
CC(O)(c1c[nH]cn1)C(c1ccccc1)c1ccccc1 (centres unmarked) [Compound 3]	0	10	67	10	potent anticonvulsant effect					
Cc1[nH]cnc1CC(c1ccccc1)c1ccccc1 [Compound 7, 4(5)-(2,2-diphenylethyl)-5(4)-methyl imidazole]	12	23	82	20		2000	50.1	very active as α2 antagonist agents		
CC(Cc1c[nH]cn1)(c1ccccc1)c1ccccc1 [Compound 10, 4(5)-[1-(2,2-diphenyl)-propyl]imidazole]	0	6	46	27	potent anticonvulsant effect					
Cc1ccc(C(Cc2c[nH]cn2)c2ccccc2)cc1C (centres unmarked) [Compound 22]	4	22	57	20				very active as α2 antagonist agents	155	
COc1ccc(C(Cc2c[nH]cn2)c2ccc(OC)cc2)cc1 [Compound 23]	0	20	40	10				very active as α2 antagonist agents		
Cc1ccc(C(Cc2c[nH]cn2)c2ccccc2)c(C)c1 (centres unmarked) [Compound 24]	0	34	93	0	potent anticonvulsant effect					
Fc1cccc(F)c1C(Cc1c[nH]cn1)c1ccccc1 (centres unmarked) [Compound 27, 4(5)-{[2-(2-fluorophenyl)-2-(6'-fluorophenyl)]ethyl}imidazole]	14	86			potent anticonvulsant effect				173	high affinity
Fc1ccccc1C(Cc1c[nH]cn1)c1ccccc1 (centres unmarked) [Compound 28, 4(5)-{[2-(2-fluorophenyl)-2-phenyl]ethyl}imidazole]	8	95			potent anticonvulsant effect				94	high affinity
c1ccc(-c2ccc(C(Cc3c[nH]cn3)c3ccccc3)cc2)cc1 (centres unmarked) [Compound 29, 4(5)-{[2-(4-biphenyl)-2-phenyl]ethyl}imidazole]	15	23			potent anticonvulsant effect				> 300	
